Several values for one entry are separate records, joined by “and”; a condition that tells them apart may be missing. Identical values can stand only once. Counter-ions that a name gives are not always drawn. Like-named read-outs stand apart in the source and are kept apart here.
Test system: HT29 RAMS11 overexpressing cells
Test: High-throughput viability assay (resazurin), 119 FDA-approved anticancer drugs, RAMS11 overexpressing cells (Clone1, Clone2)
[1] = OE1 (RAMS11 overexpression clone 1), 0.1 uM drug, 72 h, vs empty vector control
[2] = OE1 (RAMS11 overexpression clone 1), 1 uM drug, 72 h, vs empty vector control
[3] = OE1 (RAMS11 overexpression clone 1), 10 uM drug, 72 h, vs empty vector control
[4] = OE2 (RAMS11 overexpression clone 2), 0.1 uM drug, 72 h, vs empty vector control
[5] = OE2 (RAMS11 overexpression clone 2), 1 uM drug, 72 h, vs empty vector control
[6] = OE2 (RAMS11 overexpression clone 2), 10 uM drug, 72 h, vs empty vector control

Method: The FDA-approved anticancer panel included multiple classes of drugs such as kinase inhibitors, alkylating agents, antineoplastic antibiotics, anthracycline antibiotics, and antineoplastic agents (topoisomerase inhibitors). The HT29 RAMS11 overexpressing and control cells were treated for 72 h to assess cellular viability upon drug treatment (FIG. 14a and TABLE 3). […] Due to 5-FU commonly used to treat mCRC, we further determined if RAMS11 expression altered drug sensitivity in treated cells.
Drugs were diluted in DMSO to 1 mM and the well assignments were rearranged so drugs were confined to the inner 60 wells of 96-well plates. […] The next day serial diluted drug was added to pre-seeded plates in media containing 1% DMSO vehicle, using a Robbins Hydra 96 micro dispenser. Two 96-well plates of cells were used as vehicle controls. The plates were incubated for 3 days. Percent viability was scored by incubating cells for 3 h with resazurin sodium (0.023 mg/mL, Sigma R7017). The reaction was stopped by the addition of SDS (1% final concentration). Fluorescence Ex/Em 540/590 was read in a Biotek Synergy H1 plate reader (Winooski, VT). The fluorescence values for the vehicle plates were averaged and percent viability was determined by the formula: Percent viability=(average vehicle−value)/(average vehicle−average resazurin in media blank)×100. […] Assays were repeated more than three times.

Compound | Viability Fold Change [1] | Viability Fold Change [2] | Viability Fold Change [3] | Viability Fold Change [4] | Viability Fold Change [5] | Viability Fold Change [6] | Viability Fold Change
C[C@]12CC[C@H](O)CC1=CC[C@@H]1[C@@H]2CC[C@]2(C)C(c3cccnc3)=CC[C@@H]12 [Abiraterone] | 0.9503 | 0.9997 | 1.001 | 1.008 | 1.043 | 0.9879 | –
CN(C)C/C=C/C(=O)Nc1cc2c(Nc3ccc(F)c(Cl)c3)ncnc2cc1O[C@H]1CCOC1 [Afatinib] | 1.034 | 1.121 | 1.39 | 1.147 | 1.156 | 1.398 | –
Oc1ncnc2[nH]ncc12 [Allopurinol] | 0.8682 | 0.9042 | 0.776 | 0.9002 | 0.8635 | 0.8648 | –
CN(C)c1nc(N(C)C)nc(N(C)C)n1 [Altretamine] | 0.949 | 0.9105 | 0.845 | 0.9299 | 0.9672 | 0.9171 | –
NCCCNCCSP(=O)(O)O [Amifostine] | 0.9539 | 1.024 | 1.063 | 0.99 | 1.063 | 1.167 | –
NCC(=O)CCC(=O)O [Aminolevulinic Acid] | 0.8803 | 0.9655 | 1.022 | 0.914 | 1.058 | 0.9613 | –
CC(C)(C#N)c1cc(Cn2cncn2)cc(C(C)(C)C#N)c1 [Anastrozole] | 0.876 | 0.9957 | 0.9385 | 0.9749 | 1.001 | 0.9255 | –
CNC(=O)c1ccccc1Sc1ccc2c(/C=C/c3ccccn3)n[nH]c2c1 [Axitinib] | 0.9514 | 0.9382 | 0.8636 | 0.911 | 1.101 | 0.8143 | –
Nc1ncn([C@@H]2O[C@H](CO)[C@@H](O)[C@H]2O)c(=O)n1 [Azacitidine] | 1.05 | 1.098 | 0.9367 | 1.089 | 1.054 | 0.9049 | –
O=C(/C=C/c1cccc(S(=O)(=O)Nc2ccccc2)c1)NO [Belinostat] | 0.9138 | 1.209 | 1.035 | 1.073 | 1.192 | 1.006 | –
Cn1c(CCCC(=O)O)nc2cc(N(CCCl)CCCl)ccc21 [Bendamustine hydrochloride] | 0.8888 | 0.9725 | 0.935 | 1.01 | 0.9036 | 0.899 | –
CC(C)C[C@H](NC(=O)[C@H](Cc1ccccc1)NC(=O)c1cnccn1)B(O)O [Bortezomib] | 0.6015 | 1.059 | 1.152 | 0.5035 | 0.8063 | 0.9968 | –
COc1cc(Nc2c(C#N)cnc3cc(OCCCN4CCN(C)CC4)c(OC)cc23)c(Cl)cc1Cl [Bosutinib] | 1.048 | 1.013 | 1.477 | 1.022 | 1.04 | 1.608 | –
CS(=O)(=O)OCCCCOS(C)(=O)=O [Busulfan] | 1.001 | 0.9365 | 0.8448 | 0.977 | 0.9369 | 0.871 | –
CO[C@H]1C(=O)[C@]2(C)[C@@H](OC)C[C@H]3OC[C@@]3(OC(C)=O)[C@H]2[C@H](OC(=O)c2ccccc2)[C@]2(O)C[C@H](OC(=O)[C@H](O)[C@@H](NC(=O)OC(C)(C)C)c3ccccc3)C(C)=C1C2(C)C [Cabazitaxel] | 2.975 | 3.231 | 2.607 | 2.745 | 2.869 | 2.506 | –
COc1cc2nccc(Oc3ccc(NC(=O)C4(C(=O)Nc5ccc(F)cc5)CC4)cc3)c2cc1OC [Cabozantinib] | 0.9713 | 1.012 | 0.995 | 0.9575 | 1.037 | 0.8731 | –
CCCCCOC(=O)Nc1nc(=O)n([C@@H]2O[C@H](C)[C@@H](O)[C@H]2O)cc1F [Capecitabine] | 1.291 | 0.7939 | 0.9609 | 1.102 | 0.8093 | 1.166 | –
N.N.O=C([O-])C1(C(=O)[O-])CCC1.[Pt+2] [Carboplatin] | 1.016 | 1.047 | 1.103 | 0.9697 | 1.074 | 0.9969 | –
CC(C)C[C@H](NC(=O)[C@H](CCc1ccccc1)NC(=O)CN1CCOCC1)C(=O)N[C@@H](Cc1ccccc1)C(=O)N[C@@H](CC(C)C)C(=O)[C@@]1(C)CO1 [Carfilzomib] | 3.32 | 2.1 | 1.625 | 2.675 | 1.654 | 1.343 | –
O=NN(CCCl)C(=O)NCCCl [Carmustine] | 1.007 | 0.9864 | 0.8696 | 1.005 | 1.079 | 1.04 | –
Cc1ccc(-c2cc(C(F)(F)F)nn2-c2ccc(S(N)(=O)=O)cc2)cc1 [Celecoxib] | 0.8767 | 0.9228 | 0.9797 | 0.948 | 0.9628 | 0.9848 | –
Cc1cc(Nc2ncc(Cl)c(Nc3ccccc3S(=O)(=O)C(C)C)n2)c(OC(C)C)cc1C1CCNCC1 [Ceritinib] | 0.9923 | 1.015 | 0.8304 | 1.009 | 1.068 | 0.8195 | –
O=C(O)CCCc1ccc(N(CCCl)CCCl)cc1 [Chlorambucil] | 0.9531 | 1.164 | 1.064 | 0.9859 | 1.144 | 0.9173 | –
N.N.[Cl][Pt][Cl] [Cisplatin] | 1.023 | 0.9277 | 0.9406 | 0.9583 | 0.9782 | 0.9961 | –
Nc1nc(Cl)nc2c1ncn2[C@H]1C[C@H](O)[C@@H](CO)O1 [Cladribine] | 0.8736 | 1.321 | 1.949 | 0.9358 | 1.327 | 1.86 | –
Nc1nc(Cl)nc2c1ncn2[C@@H]1O[C@H](CO)[C@@H](O)[C@@H]1F [Clofarabine] | 0.9141 | 1.361 | 2.473 | 1.012 | 1.421 | 2.375 | –
C[C@@H](Oc1cc(-c2cnn(C3CCNCC3)c2)cnc1N)c1c(Cl)ccc(F)c1Cl [Crizotinib] | 0.9595 | 1.07 | 0.9127 | 0.9806 | 1.093 | 0.8562 | –
O=P1(N(CCCl)CCCl)NCCCO1 (stereo not shown) [Cyclophosphamide] | – | – | – | – | – | – | 0.857 and 0.9632 and 0.9808 and 0.899 and 1.019 and 0.881
Nc1ccn([C@@H]2O[C@H](CO)[C@@H](O)[C@@H]2O)c(=O)n1 [Cytarabine hydrochloride] | 0.9825 | 1.254 | 1.524 | 0.9917 | 1.381 | 1.876 | –
CN(C)/N=N/c1[nH]cnc1C(N)=O [Dacarbazine] | 1.078 | 0.9877 | 0.983 | 1.084 | 1.028 | 0.9794 | –

— patent publication US12024707B2, “Methods and compositions for modulating lncRNAs and methods of treatment based on lncRNA expression” (Washington University, priority 2020, dated 2024)
